Experimental data: US20240174625A1, “COMPOSITIONS AND METHODS FOR TREATING TAUOPATHIES” (The Regents of the University of California, priority 2021, published 2024)

How the values were obtained:
NPEPPS = biological target: T1, NPEPPS (Homo sapiens, UniProt P55786); assay: Cell-based NPEPPS activity assay (Q-AMC fluorescence); conditions: log10 transformed; EC50 = concentration that elevates 50% NPEPPS activity (150% of DMSO baseline); HEK293T cells
T1 construct: endogenous in cells; host or cells: HEK293T
Procedure: HEK293T cells (AATC) were maintained in a complete media containing DMEM (Gibco 11995-065) in the presence of 10% fetal bovine serum (FBS, Gibco 10082147), […] penicillin and 50 μg/ml streptomycin (Gibco 15140163) at 37° C. with 5% CO2. NPEPPS activity assay was conducted in a fresh-prepared minimal medium containing essential amino acids, vitamin, AlbuMax (Invitrogen 11021-029) in 1×HBS buffer. Black wall, clear bottom 384-well assay plates (Greiner EK-30092) were coated with poly-L-ornithine (0.1 mg/ml, Sigma P3655) overnight and washed once with 1×PBS. 15 μl minimal medium was then added to each well. 250 nL of compounds dissolved in OmniSolve methylsulfoxide (dimethyl sulfoxide, DMSO, Sigma MX1456P) were pinned to each well via Biomek FX^P Liquid Handling Automation (Beckman Coulter) from compound source plates, i.e., either pre-made compound libraries or JMM compounds (20-step, 2-fold dilution) dissolved in OmniSolve DMSO prepared via Biomek automation in 384-well clear V-bottom polypropylene microplates (ThermoScientific 50-823-639). Cells were harvested, resuspended in minimal medium, and seeded at 16,500 cells/15 μl/well in the 384-well assay plates. 24 hrs later, 30 μl 200 μM H-Gln-AMC hydrobromide salt (Q-AMC, Bachem #I-1175) in 1×HBS containing 0.1% DMSO was added into each well. The fluorescent signal at excitation/emission wavelengths of 360/460 nm was measured immediately upon Q-AMC addition and 3 hrs post-Q-AMC. The change in fluorescence is measured as a readout of NPEPPS activity.
To identify small molecules that either increase NPEPPS levels or NPEPPS activity, a cell-based NPEPPS activity assay amenable to high-throughput screening (HTS) by adapting a fluorescent peptidase activity assay^2 was developed. Since NPEPPS is one of the only aminopeptidases capable of cleaving glutamine-peptide bonds^3 and the major aminopeptidase responsible for degradation of poly-glutamine sequences in the brain^4, a fluorogenic compound, glutamine-7-amino-4-methylcoumarin (Q-AMC), was selected as a substrate to measure NPEPPS activity. The peptide bond of Q-AMC is hydrolyzed by NPEPPS to release glutamine and a fluorescent product, 7-amino-4-methylcoumarin (AMC), when Q-AMC is added directly to the cell culture media. This change in fluorescence is measured as a readout of aminopeptidase activity (FIG. 2A). Overexpression of NPEPPS in HEK293T cells results in a significant increase in fluorescence, whereas knock-down or chemical inhibition of NPEPPS decrease fluorescence change (FIG. 2B-D), validating that the changes in fluorescence observed in the Q-AMC-based assay directly correlate with changes in NPEPPS activity. A high-throughput (HTS) screen (201,845 compounds) was conducted at the UCLA MSSR core (FIG. 2E). Follow-up assays and chemical clustering identified three series of compounds with distinct chemical clusters (FIG. 2F).
(§1) To investigate the effects of JMM compounds that enhance NPEPPS activity and assess their cellular toxicity, 139 compounds in the JMM series (i.e., JMM001-JMM139) were tested in dose responses (20-step, 2-fold dilution) using NPEPPS activity and viability assays in HEK293T cells. 76 compounds harboring different modifications produce concentration-dependent enhancement on NPEPPS activity compared to DMSO control (FIG. 4). […] A therapeutic index (TI, a ratio of IC50 over EC50) is used to evaluate the relative safety profiles of the compounds. […] 16 JMM compounds show both improved potency and reduced toxicity (EC50<10 μM and TI>10, Table 1).

HEK293T cells = assay: Cell viability assay (CellTiter Glo); type: cell-based, human; conditions: for IC50: Homo sapiens, HEK-293T, log10 transformed, IC50 = concentration that suppresses 50% cell viability, HEK293T cells; for Therapeutic index: ratio of IC50 (cell viability) over EC50 (NPEPPS activity)
Procedure: HEK293T cells (AATC) were maintained in complete media and cell viability assay was conducted in a fresh-prepared minimal medium containing essential amino acids, vitamin, AlbuMax (Invitrogen 11021-029) in 1×HBS buffer. White 384-well assay plates (Greiner EK-30080) were coated with poly-L-ornithine (0.1 mg/ml) overnight and washed once with 1×PBS. 15 μl minimal medium was then added to each well. 250 nl of compounds dissolved in OmniSolve DMSO were pinned to each well via Biomek FX^P Liquid Handling Automation from compound source plates. Cells were harvested, resuspended in minimal medium, and seeded at 16,500 cells/15 μl/well in the 384-well assay plates. 24 hrs later, 25 μl/well CellTiter Glo reagent (Promega G7572) was added into each well, and luminescence (0.5 second integration time) was acquired following manufacture's protocol. Luminescence count normalized to DMSO control is used as a readout of cell viability.
as §1

T1 sequence (P55786 whole entry): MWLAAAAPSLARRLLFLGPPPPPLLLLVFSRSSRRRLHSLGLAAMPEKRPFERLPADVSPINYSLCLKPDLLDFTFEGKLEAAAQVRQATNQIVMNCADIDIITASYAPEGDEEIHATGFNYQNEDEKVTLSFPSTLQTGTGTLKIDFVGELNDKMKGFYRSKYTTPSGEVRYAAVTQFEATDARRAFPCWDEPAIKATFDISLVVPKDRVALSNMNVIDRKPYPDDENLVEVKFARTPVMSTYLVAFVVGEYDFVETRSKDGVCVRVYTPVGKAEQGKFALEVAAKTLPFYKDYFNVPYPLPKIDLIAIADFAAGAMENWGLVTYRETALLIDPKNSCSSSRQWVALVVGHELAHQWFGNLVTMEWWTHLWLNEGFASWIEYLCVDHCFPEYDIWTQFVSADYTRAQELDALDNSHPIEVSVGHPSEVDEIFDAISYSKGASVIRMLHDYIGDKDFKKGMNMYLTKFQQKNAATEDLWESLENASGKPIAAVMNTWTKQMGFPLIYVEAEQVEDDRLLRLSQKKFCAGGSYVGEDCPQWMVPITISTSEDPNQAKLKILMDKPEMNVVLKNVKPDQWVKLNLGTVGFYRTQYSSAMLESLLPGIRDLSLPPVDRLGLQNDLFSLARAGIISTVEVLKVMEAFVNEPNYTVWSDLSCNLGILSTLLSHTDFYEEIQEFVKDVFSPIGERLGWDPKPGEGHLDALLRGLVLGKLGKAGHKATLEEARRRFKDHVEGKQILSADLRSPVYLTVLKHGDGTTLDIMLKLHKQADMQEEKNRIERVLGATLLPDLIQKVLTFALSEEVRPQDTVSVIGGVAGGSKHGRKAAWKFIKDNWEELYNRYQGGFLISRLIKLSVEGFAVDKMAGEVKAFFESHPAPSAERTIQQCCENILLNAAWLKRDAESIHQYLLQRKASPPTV

## FC(F)(F)c1ccc(CNc2nsc3ccc(OCc4ccccc4)cc23)cc1 [JMM066]
NPEPPS
  EC50: 6.46 µM
HEK293T cells
  IC50: 174 µM
  Therapeutic index: 27.03

## c1ccc(COc2ccc(CNc3nsc4ccccc34)cc2)cc1 [JMM014]
NPEPPS
  EC50: 12.9 µM
HEK293T cells
  IC50: 22.4 µM
  Therapeutic index: 1.75

## COc1ccc(CN(C)c2nsc3ccc(OCc4ccccc4)cc23)cc1 [JMM107, 5-(Benzyloxy)-N-(4-methoxybenzyl)-N-methylbenzo[d]isothiazol-3-amine]
NPEPPS
  EC50: 85.1 µM
HEK293T cells
  IC50: 87.1 µM
  Therapeutic index: 1.04

## COc1ccc(COc2nsc3ccccc23)cc1OC [JMM104]
NPEPPS
  EC50: 105 µM
HEK293T cells
  IC50: 63.1 µM
  Therapeutic index: 0.60

## CN(Cc1ccc(Cl)c(Cl)c1)c1nsc2ccc(OCc3ccccc3)cc12 [JMM093]
NPEPPS
  EC50: 5.01 µM
HEK293T cells
  IC50: 20.4 µM
  Therapeutic index: 4.06

## FC(F)c1ccc(CNc2nsc3ccccc23)cc1 [JMM063]
NPEPPS
  EC50: 148 µM
HEK293T cells
  IC50: 195 µM
  Therapeutic index: 1.33

## Fc1cccc2c(NC(c3ccccc3)c3ccccc3)nsc12 [JMM057]
NPEPPS
  EC50: 31.6 µM
HEK293T cells
  IC50: 151 µM
  Therapeutic index: 4.85

## FC(F)(F)c1ccc(CN(CC2CC2)c2nsc3ccccc23)cc1 [JMM133, N-(Cyclopropylmethyl)-N-(4-(trifluoromethyl)benzyl)benzo[d]isothiazol-3-amine]
NPEPPS
  EC50: 5.5 µM
HEK293T cells
  IC50: 20.9 µM
  Therapeutic index: 3.78

## FC(F)(F)c1ccc(CNc2ncccn2)cc1 [JMM049]
NPEPPS
  EC50: 56.2 µM
HEK293T cells
  IC50: 162 µM
  Therapeutic index: 2.93

## c1ccc(C(Nc2nsc3ccccc23)c2ccccc2)cc1 [JMM029]
NPEPPS
  EC50: 7.08 µM
HEK293T cells
  IC50: 324 µM
  Therapeutic index: 45.28

## Brc1ccc(COc2ccc(CNc3nsc4ccc(OCc5ccccc5)cc34)cc2)cc1 [JMM113, 5-(Benzyloxy)-N-(4-((4-bromobenzyl)oxy)benzyl)benzo[d]isothiazol-3-amine]
NPEPPS
  EC50: 4.47 µM
HEK293T cells
  IC50: 18.6 µM
  Therapeutic index: 4.18

## COc1ccc(C(=O)Nc2nsc3ccccc23)cc1 [JMM004]
NPEPPS
  EC50: 407 µM
HEK293T cells
  IC50: 372 µM
  Therapeutic index: 0.90

## Fc1ccccc1CNc1nsc2ccccc12 [JMM073]
NPEPPS
  EC50: 138 µM
HEK293T cells
  IC50: 316 µM
  Therapeutic index: 2.30

## Cc1ccccc1COc1ccc(CNc2nsc3ccc(OCc4ccccc4)cc23)cc1 [JMM114, 5-(Benzyloxy)-N-(4-((2-methylbenzyl)oxy)benzyl)benzo[d]isothiazol-3-amine]
NPEPPS
  EC50: 26.3 µM
HEK293T cells
  IC50: 63.1 µM
  Therapeutic index: 2.42

## Fc1ccc2snc(NCc3ccc(OCc4ccccc4)cc3)c2c1 [JMM130, N-(4-(Benzyloxy)benzyl)-5-fluorobenzo[d]isothiazol-3-amine]
NPEPPS
  EC50: 63.1 µM
HEK293T cells
  IC50: 224 µM
  Therapeutic index: 3.56

## c1ccc(COc2ccc3snc(NCc4ccc(OCc5cccc6ccccc56)cc4)c3c2)cc1 [JMM106, 5-(Benzyloxy)-N-(4-(naphthalen-1-ylmethoxy)benzyl)benzo[d]isothiazol-3-amine]
NPEPPS
  EC50: 126 µM
HEK293T cells
  IC50: 794 µM
  Therapeutic index: 6.26

## COc1ccc(CNc2ncccn2)cc1OC [JMM048]
NPEPPS
  EC50: 525 µM
HEK293T cells
  IC50: 562 µM
  Therapeutic index: 1.09

## FC(F)(F)c1ccc(C(Nc2nsc3ccccc23)c2ccc(C(F)(F)F)cc2)cc1 [JMM051]
NPEPPS
  EC50: 7.08 µM
HEK293T cells
  IC50: 14.1 µM
  Therapeutic index: 2.03

## COc1ccc(CN(C)c2nsc3ccccc23)cc1OC [JMM068]
NPEPPS
  EC50: 58.9 µM
HEK293T cells
  IC50: 132 µM
  Therapeutic index: 2.22

## CN(Cc1ccc(OCc2ccc(Cl)c(Cl)c2)cc1)c1nsc2ccc(OCc3ccccc3)cc12 [JMM109, 5-(Benzyloxy)-N-(4-((3,4-dichlorobenzyl)oxy)benzyl)-N-methylbenzo[d]isothiazol-3-amine]
NPEPPS
  EC50: 4.07 µM
HEK293T cells
  IC50: 60.3 µM
  Therapeutic index: 14.99

## CN(Cc1ccc(SC(F)(F)F)cc1)c1nsc2ccc(OCc3ccccc3)cc12 [JMM098]
NPEPPS
  EC50: 18.6 µM
HEK293T cells
  IC50: 107 µM
  Therapeutic index: 5.68

## Brc1ccc(CNc2nsc3ccccc23)cc1 [JMM016]
NPEPPS
  EC50: 126 µM
HEK293T cells
  IC50: 47.9 µM
  Therapeutic index: 0.38

## Clc1ccc(C(Nc2nsc3ccccc23)c2ccc(Cl)cc2)cc1 [JMM076]
NPEPPS
  EC50: 9.77 µM
HEK293T cells
  IC50: 20 µM
  Therapeutic index: 2.03

## Clc1ccc(CNc2nsc3ccccc23)cc1Cl [JMM021]
NPEPPS
  EC50: 32.4 µM
HEK293T cells
  IC50: 58.9 µM
  Therapeutic index: 1.80

## N#Cc1cccc2c(NCc3ccc(C(F)(F)F)cc3)nsc12 [JMM070]
NPEPPS
  EC50: 200 µM
HEK293T cells
  IC50: 2630 µM
  Therapeutic index: 13.25

## Fc1cc(Cl)ccc1CNc1nsc2ccccc12 [JMM022]
NPEPPS
  EC50: 186 µM
HEK293T cells
  IC50: 6460 µM
  Therapeutic index: 34.72

## Fc1ccc(COc2ccc(CNc3nsc4ccc(OCc5ccccc5)cc34)cc2)c(F)c1 [JMM111, 5-(Benzyloxy)-N-(4-((2,4-difluorobenzyl)oxy)benzyl)benzo[d]isothiazol-3-amine]
NPEPPS
  EC50: 10.2 µM
HEK293T cells
  IC50: 27.5 µM
  Therapeutic index: 2.74

## c1ccc(COc2ccc3snc(NCc4ccc(-c5ccccc5)cc4)c3c2)cc1 [JMM105, N-([1,1′-Biphenyl]-4-ylmethyl)-5-(benzyloxy)benzo[d]isothiazol-3-amine]
NPEPPS
  EC50: 26.3 µM
HEK293T cells
  IC50: 53.7 µM
  Therapeutic index: 2.02

## CN(Cc1cccc2ccccc12)c1nsc2ccccc12 [JMM110, N-Methyl-N-(naphthalen-1-ylmethyl)benzo[d]isothiazol-3-amine]
NPEPPS
  EC50: 42.7 µM
HEK293T cells
  IC50: 229 µM
  Therapeutic index: 5.40

## FC(F)(F)c1ccc(CNc2nsc3ccc(OCc4ccc(C(F)(F)F)cc4)cc23)cc1 [JMM137, N-(4-(Trifluoromethyl)benzyl)-5-((4-(trifluoromethyl)benzyl)oxy)benzo[d]isothiazol-3-amine]
NPEPPS
  EC50: 11.7 µM
HEK293T cells
  IC50: 38.9 µM
  Therapeutic index: 3.30

## FC(F)(F)c1ccc(CNc2nsc3c(Br)cccc23)cc1 [JMM028]
NPEPPS
  EC50: 28.8 µM
HEK293T cells
  IC50: 33.9 µM
  Therapeutic index: 1.19

## Fc1cccc2c(NCc3ccccc3C(F)(F)F)nsc12 [JMM056]
NPEPPS
  EC50: 34.7 µM
HEK293T cells
  IC50: 81.3 µM
  Therapeutic index: 2.34

## Fc1ccc(NCc2ccc(C(F)(F)F)cc2)nc1 [JMM045]
NPEPPS
  EC50: 53.7 µM
HEK293T cells
  IC50: 186 µM
  Therapeutic index: 3.49

## FC(F)(F)c1ccc(CNc2nsc3ccccc23)cc1 [JMM005]
NPEPPS
  EC50: 34.7 µM
HEK293T cells
  IC50: 117 µM
  Therapeutic index: 3.42

## COc1ccc(CNc2nsc3cccc(OC)c23)cc1OC [JMM026]
NPEPPS
  EC50: 41.7 µM
HEK293T cells
  IC50: 129 µM
  Therapeutic index: 3.05

## Clc1ccc2snc(NCc3ccc(OCc4ccccc4)cc3)c2c1 [JMM129, N-(4-(Benzyloxy)benzyl)-5-chlorobenzo[d]isothiazol-3-amine]
NPEPPS
  EC50: 27.5 µM
HEK293T cells
  IC50: 661 µM
  Therapeutic index: 24.01
